These results are taken from ChEMBL document CHEMBL3621178, “Antidiabetic effect of novel benzenesulfonylureas as PPAR-γ agonists and their anticancer effect” (Bioorg Med Chem Lett, 2015).

Activity calls are given as the source filed them. The rule behind the calls is not given here.

The test system of data set [1] is Rattus norvegicus. Nature of the data set: Toxicity in STZ-induced diabetic Wistar rat model assessed as increase in body weight at 30 mg/kg, po repeated for 15 days […]. The conditions noted are these: in vivo, 360 h. Type of data set: organism-based.
In data set [2] the test system is Rattus norvegicus. Nature of the data set: Antidiabetic activity in STZ-induced diabetic Wistar rat model assessed as reduction in blood glucose level at 30 mg/kg, po repeated for 15 days by GOD-POD method. Type of data set: functional, organism-based.
The target of data set [3] is T1, Peroxisome proliferator-activated receptor gamma (Homo sapiens) (UniProt P37231).
T1 sequence (whole entry): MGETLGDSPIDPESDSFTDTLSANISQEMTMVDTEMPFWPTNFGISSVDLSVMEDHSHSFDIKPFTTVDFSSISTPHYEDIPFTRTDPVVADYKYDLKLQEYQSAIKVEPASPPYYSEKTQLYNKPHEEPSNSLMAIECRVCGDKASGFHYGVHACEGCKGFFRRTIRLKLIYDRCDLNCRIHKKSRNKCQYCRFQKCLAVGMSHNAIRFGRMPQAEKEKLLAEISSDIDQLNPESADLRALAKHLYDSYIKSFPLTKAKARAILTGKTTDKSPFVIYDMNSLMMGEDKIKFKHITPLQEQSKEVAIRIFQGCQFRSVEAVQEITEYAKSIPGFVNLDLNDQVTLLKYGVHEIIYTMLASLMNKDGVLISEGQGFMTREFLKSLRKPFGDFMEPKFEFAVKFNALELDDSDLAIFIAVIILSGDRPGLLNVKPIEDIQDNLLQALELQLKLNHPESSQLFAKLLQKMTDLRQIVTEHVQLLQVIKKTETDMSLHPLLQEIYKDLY
Nature of the data set: Agonist activity at PPARgamma (unknown origin) expressed in HEK293 cells assessed as receptor transactivation at 10 uM incubated for 24 hrs by luciferase reporter gene assay. Type of data set: cell-based. Background: Reporter assays use an easily measured gene product as a stand-in for the process of interest.

The subject of data set [4] is Rattus norvegicus. Nature of the data set: Antidiabetic activity in Wistar rat assessed as reduction in blood glucose level at 30 mg/kg, po dosed 30 mins before glucose challenge and measured 30 and 60 mins post glucose challenge by OGTT method. Type of data set: functional, organism-based.
The subject of a further data set is 3T3-L1. The experiment in a line: Increase in PPARgamma mRNA expression in mouse 3T3L1 cells at 10 uM incubated for 24 hrs by RT-PCR method. Type of data set: functional.
For data set [5], the system named is Rattus norvegicus. Nature of the data set: Antidiabetic activity in Wistar rat assessed as reduction in blood glucose level at 36 mg/kg, po dosed 30 mins before glucose challenge and measured 30 and 60 mins post glucose challenge by OGTT method. Type of data set: functional, organism-based.
The subject of data set [6] is Rattus norvegicus. Nature of the data set: Antidiabetic activity in STZ-induced diabetic Wistar rat model assessed as reduction in blood glucose level at 36 mg/kg, po repeated for 15 days by GOD-POD method. Type of data set: functional, organism-based.
Data set [7] relates to Rattus norvegicus. Nature of the data set: Toxicity in STZ-induced diabetic Wistar rat model assessed as increase in body weight at 36 mg/kg, po repeated for 15 days […]. The settings on record: in vivo, 360 h. Type of data set: organism-based.

For `COc1ccc(C2CC(c3cc4ccccc4oc3=O)=NN2c2ccc(S(=O)(=O)NC(=S)NCc3ccccc3)cc2)cc1` (stereo not given), the Activity entry in the data set on Rattus norvegicus [1] was “Non-toxic”. For the same molecule, the outcome (with Rattus norvegicus [2]; in data set [3]; in the data set on Rattus norvegicus [4]) was Active.

In the case of `Cc1ccccc1NC(=O)NS(=O)(=O)c1ccc(N2N=C(c3cc4ccccc4oc3=O)CC2c2ccc(N(C)C)cc2)cc1` (stereo not given), in the data set on Rattus norvegicus [1], the Activity entry is reported as “Non-toxic”. Also, the outcome (in the data set with Rattus norvegicus [2]; in data set [3]; in the data set on Rattus norvegicus [4]) was Active. The “fold change (FC)” value in the data set with 3T3-L1 was found to be 1.13.

On to `Cc1ccccc1NC(=O)NS(=O)(=O)c1ccc(N2N=C(c3ccco3)CC2c2ccc(N(C)C)cc2)cc1` (stereo not given), for which, in the data set on Rattus norvegicus [1], the Activity entry was “Non-toxic”. Moreover, the outcome (with Rattus norvegicus [2]; in data set [3]; with Rattus norvegicus [4]) was Active.

Regarding `CN(C)c1ccc(C2CC(c3ccco3)=NN2c2ccc(S(=O)(=O)NC(=O)NCc3ccccc3)cc2)cc1` (stereo not given), the Activity result in the data set on Rattus norvegicus [1] is given as “Non-toxic”. Further, the outcome (in the data set with Rattus norvegicus [2]; in data set [3]; in the data set with Rattus norvegicus [4]) was Active.

For the molecule `COc1ccc(C2CC(c3ccco3)=NN2c2ccc(S(=O)(=O)NC(=O)Nc3ccccc3C)cc2)cc1` (stereo not given), the result in the data set on Rattus norvegicus [4] was Active.

For the molecule `COc1ccc(NC(=S)NS(=O)(=O)c2ccc(N3N=C(c4ccco4)CC3c3ccc(N(C)C)cc3)cc2)cc1` (stereo not given), the outcome in the data set on Rattus norvegicus [4] was Active.

Consider `COc1ccc(NC(=O)NS(=O)(=O)c2ccc(N3N=C(c4ccco4)CC3c3ccc(N(C)C)cc3)cc2)cc1` (stereo not given), for which the outcome with Rattus norvegicus [4] was Active.

Consider `COc1ccc(Cl)cc1C(=O)NCCc1ccc(S(=O)(=O)NC(=O)NC2CCCCC2)cc1` [GLYBURIDE], for which the Activity entry with Rattus norvegicus [1] is given as “Toxic”. Also, the result (with Rattus norvegicus [2]; in data set [3]; in the data set with Rattus norvegicus [4]) was Active. In addition, the “fold change (FC)” value in the data set with 3T3-L1 turned out to be 1.01.

Regarding `CN(CCOc1ccc(CC2SC(=O)NC2=O)cc1)c1ccccn1` (stereo not given) [ROSIGLITAZONE], the result (in data set [3]; with Rattus norvegicus [5]; in the data set with Rattus norvegicus [6]) was Active. Further, in the data set with Rattus norvegicus [7], the Activity entry is listed as “Toxic”. Moreover, the “fold change (FC)” value in the data set with 3T3-L1 was 1.52.
